# Measurements published in patent US9212204B2, “Treatment of rett syndrome using glycyl-L-2-methylprolyl-L-glutamic acid” (priority 2011, dated 2015).
# Non-standard residues stand in square brackets, D forms with d. Residues, ends and D or L forms follow the SMILES beside them. αMeP = C[C@@]1(C(=O)O)CCCN1
# Columns and labels:
# RTT iPSC-derived neurons = assay: In vitro human model of Rett Syndrome, iPSC-derived neurons; assay type: cell-based; design: glutamatergic synapse numbers: dose or concentration left out as unconfirmed
# Text: To test the effects of G-2-MePE on neuronal morphology, we used an in vitro model of RTT described in Marchetto et al., A model for neural development and treatment of Rett syndrome using human induced pluripotent stem cells, Cell 143:527-539 (2010) (including supplemental information). The model uses induced pluripotent stem cells (iPSCs) generated from fibroblasts of human RTT patients carrying different MeCP2 mutations.
# RTT fibroblasts (carrying 4 distinct MeCP2 mutations) and control fibroblasts are generated from explants of dermal biopsies. The shRNA against target MeCP2 gene is cloned into the LentiLox3.7 lentivirus vector (as described in Marchetto et al.). The fibroblasts are infected with retroviral reprogramming vectors (Sox2, Oct4, c-Myc and Klf4), Two days after infection, fibroblasts are plated on mitotically inactivated mouse embryonic fibroblasts with hESC medium. After 2 weeks, iPSC colonies that emerge from the background of fibroblasts are manually picked and transferred to feeder-free conditions on matrigel-coated dishes (BD) using embryonic stem cell culture media mTeSR™ (Stem Cell Technologies) and passaged manually. Gene expression profiles of the generated clones are measured using human genome Affymetrix Gene Chip™ arrays to confirm that reprogramming is successful.
# To obtain neural progenitor cells (NPCs), embryoid bodies (EBs) are formed by mechanical dissociation of cell clusters and plating onto low-adherence dishes in hESC medium without FGF2 for 5-7 days. After that, EBs are plated onto poly-ornithine/laminin-coated dishes in DMEM/F12 plus N2 medium (serum-free supplement for growth and expression of post-mitotic cells). […]
# Cells are fixed in 4% paraformaldehyde and permeabilized with 0.5% Triton-X100 in PBS. […] Fluorescent signals are detected using a Zeiss inverted microscope and images are processed with Photoshop CS3. The following primary antibodies are used: TRA-1-60, TRA-1-81 (1:100), Nanog and Lin28 (1:500), human Nestin (1:100), Tuj-1 (1:500), Map2 (1:100); meCP2 (1:1000; VGLUT1 (1:200), Psd95 (1:500), GFP (1:200), Sox1 (1:250), Mushasil (1:200) and me3H3K27 (1:500). Cell soma size is measured using suitable software (e.g. ImageJ) after identification of neurons using the Syn::EGFP™. The morphologies of neuronal dendrites and spines are studied from an individual projection of z-stacks optical sections and scanned at 0.5 um increments that correlate with the resolution valued at z-plane. Each optical section is the result of 3 scans at 500 lps followed by Kalman filtering. For synapse quantification, images are taken by a z-step of 1 um using Biorad radiance 2100™ confocal microscope. Synapse quantification is done blinded to genotype. Only VGLUT1 puncta along Map2-positive processes are counted. […]
# MeCP2-/y mice = assay: Life span of MeCP2-/y mice (Example 10); assay type: in vivo, mouse; details: 20 mg/kg i.p. daily; compared to MeCP2 KO littermates
# Experimental: For the survival measurements, the nocturnal activity analysis and the immunoblot analysis, G-2-MePE (synthesised Albany Molecular Research Inc. (Albany, N.Y.) and supplied by Neuren Pharmaceuticals Limited) is administered daily via intra-peritoneal injections (20 mg/kg, vehicle=saline, 0.01% BSA). The treatment starts at PI 5 and is maintained throughout the course of the experiments. For intracellular physiology experiments, the mice are injected daily with G-2-MePE (20 mg/kg body weight, vehicle=saline, 0.01% BSA) for 2 weeks, from P15 to P28-P32 when they are used for acute slice preparation. For optical imaging experiments, mice are injected with G-2-MePE (20 mg/kg body weight, vehicle=saline, 0.01% BSA) daily from the day of the lid suture to the day of imaging.
# To test whether G-2-MePE treatment will impact the development of cardinal features of the RTT disease, 2 week old mutant animals are given daily intra-peritoneal injections for the course of their lifespan. Measurements of synaptic physiology, synaptic molecular composition, and cortical plasticity are then acquired as detailed below, along with health-related measurements such as heart rate, locomotor activity levels, and lifespan.
# central nervous system = details: after oral administration; cited from earlier work
smiles,measurement,setting,value
"C[C@@]1(C(=O)N[C@@H](CCC(=O)O)C(=O)O)CCCN1C(=O)CN [Example G-2-MePE, Glycyl-L-2-methylprolyl-L-glutamic acid] (H-Gly-[αMeP]-Glu-OH)",frequency and amplitude of spontaneous post-synaptic currents,RTT iPSC-derived neurons; 1 week treatment,normalizes
same,frequency of calcium transients,RTT iPSC-derived neurons; 1 week treatment,normalizes
same,VGLUT1 puncta number,"RTT iPSC-derived neurons; all concentrations, 1 week",increase
same,glutamatergic synapse numbers,"RTT iPSC-derived neurons; for 1 week, vs non-treated RTT controls",significant increase
same,increase in life expectancy (0.5 probability survival rate),MeCP2-/y mice,~50%
same,activity in the central nervous system,central nervous system,active
